Data published in ChEMBL document CHEMBL1671626, “In vitro profiling of ceftaroline against a collection of recent bacterial clinical isolates from across the United States” (2008).

How the values were obtained:
Format in all cases: functional
[1] = test system: Staphylococcus aureus; assay: Antibacterial activity against methicillin-susceptible Staphylococcus aureus by CLSI M7-A7 broth microdilution method
[2] = test system: Staphylococcus aureus; assay: Antibacterial activity against methicillin-susceptible Staphylococcus aureus assessed as resistant isolates by CLSI M7-A7 broth microdilution method
[3] = test system: Staphylococcus aureus; assay: Antibacterial activity against methicillin-resistant Staphylococcus aureus assessed as resistant isolates by CLSI M7-A7 broth microdilution method
[4] = test system: Staphylococcus aureus; assay: Antibacterial activity against coagulase-negative and oxacillin-susceptible Staphylococcus aureus assessed as resistant isolates by CLSI M7-A7 broth microdilution method
[5] = test system: Staphylococcus aureus; assay: Antibacterial activity against coagulase-negative and oxacillin-resistant Staphylococcus aureus by CLSI M7-A7 broth microdilution method
[6] = test system: Staphylococcus aureus; assay: Antibacterial activity against coagulase-negative and oxacillin-resistant Staphylococcus aureus assessed as susceptible isolates by CLSI M7-A7 broth microdilution method
[7] = test system: Streptococcus pneumoniae; assay: Antibacterial activity against penicillin-resistant Streptococcus pneumoniae by CLSI M7-A7 broth microdilution method
[8] = test system: Streptococcus pyogenes; assay: Antibacterial activity against erythromycin-nonsusceptible Streptococcus pyogenes by CLSI M7-A7 broth microdilution method
[9] = test system: Streptococcus agalactiae; assay: Antibacterial activity against erythromycin-susceptible Streptococcus agalactiae by CLSI M7-A7 broth microdilution method
[10] = test system: Streptococcus agalactiae; assay: Antibacterial activity against erythromycin-nonsusceptible Streptococcus agalactiae by CLSI M7-A7 broth microdilution method
[11] = test system: Streptococcus viridans; assay: Antibacterial activity against penicillin-susceptible Streptococcus viridans by CLSI M7-A7 broth microdilution method
[12] = test system: Streptococcus viridans; assay: Antibacterial activity against penicillin-nonsusceptible Streptococcus viridans by CLSI M7-A7 broth microdilution method
[13] = test system: Enterobacteriaceae; assay: Antibacterial activity against ceftazidime-susceptible Enterobacteriaceae by CLSI M7-A7 broth microdilution method
[14] = test system: Enterobacteriaceae; assay: Antibacterial activity against ceftazidime-susceptible Enterobacteriaceae assessed as susceptible isolates by CLSI M7-A7 broth microdilution method
[15] = test system: Enterobacteriaceae; assay: Antibacterial activity against ceftazidime-susceptible Enterobacteriaceae assessed as resistant isolates by CLSI M7-A7 broth microdilution method
[16] = test system: Enterobacteriaceae; assay: Antibacterial activity against ceftazidime-nonsusceptible Enterobacteriaceae assessed as susceptible isolates by CLSI M7-A7 broth microdilution method
[17] = test system: Enterobacteriaceae; assay: Antibacterial activity against ceftazidime-nonsusceptible Enterobacteriaceae assessed as resistant isolates by CLSI M7-A7 broth microdilution method
[18] = test system: Citrobacter freundii; assay: Antibacterial activity against ceftazidime-nonsusceptible Citrobacter freundii by CLSI M7-A7 broth microdilution method
[19] = test system: Citrobacter freundii; assay: Antibacterial activity against ceftazidime-nonsusceptible Citrobacter freundii assessed as susceptible isolates by CLSI M7-A7 broth microdilution method
[20] = test system: Enterobacter cloacae; assay: Antibacterial activity against ceftazidime-susceptible Enterobacter cloacae assessed as susceptible isolates by CLSI M7-A7 broth microdilution method
[21] = test system: Enterobacter cloacae; assay: Antibacterial activity against ceftazidime-susceptible Enterobacter cloacae assessed as resistant isolates by CLSI M7-A7 broth microdilution method
[22] = test system: Enterobacter cloacae; assay: Antibacterial activity against ceftazidime-nonsusceptible Enterobacter cloacae assessed as resistant isolates by CLSI M7-A7 broth microdilution method
[23] = test system: Escherichia coli; assay: Antibacterial activity against ceftazidime-susceptible Escherichia coli assessed as susceptible isolates by CLSI M7-A7 broth microdilution method
[24] = test system: Escherichia coli; assay: Antibacterial activity against ceftazidime-susceptible Escherichia coli assessed as resistant isolates by CLSI M7-A7 broth microdilution method
[25] = test system: Escherichia coli; assay: Antibacterial activity against ceftazidime-nonsusceptible Escherichia coli by CLSI M7-A7 broth microdilution method
[26] = test system: Escherichia coli; assay: Antibacterial activity against ceftazidime-nonsusceptible Escherichia coli assessed as resistant isolates by CLSI M7-A7 broth microdilution method
[27] = test system: Klebsiella pneumoniae; assay: Antibacterial activity against ceftazidime-susceptible Klebsiella pneumoniae assessed as susceptible isolates by CLSI M7-A7 broth microdilution method
[28] = test system: Klebsiella pneumoniae; assay: Antibacterial activity against ceftazidime-susceptible Klebsiella pneumoniae assessed as resistant isolates by CLSI M7-A7 broth microdilution method
[29] = test system: Klebsiella pneumoniae; assay: Antibacterial activity against ceftazidime-nonsusceptible Klebsiella pneumoniae by CLSI M7-A7 broth microdilution method
[30] = test system: Proteus mirabilis; assay: Antibacterial activity against ceftazidime-susceptible Proteus mirabilis by CLSI M7-A7 broth microdilution method
[31] = test system: Proteus mirabilis; assay: Antibacterial activity against ceftazidime-susceptible Proteus mirabilis assessed as resistant isolates by CLSI M7-A7 broth microdilution method
[32] = test system: Acinetobacter; assay: Antibacterial activity against multidrug-resistant Acinetobacter by CLSI M7-A7 broth microdilution method
[33] = test system: Acinetobacter; assay: Antibacterial activity against multidrug-resistant Acinetobacter assessed as susceptible isolates by CLSI M7-A7 broth microdilution method
[34] = test system: Acinetobacter; assay: Antibacterial activity against multidrug-resistant Acinetobacter assessed as resistant isolates by CLSI M7-A7 broth microdilution method
[35] = test system: Acinetobacter; assay: Antibacterial activity against imipenem-susceptible Acinetobacter by CLSI M7-A7 broth microdilution method
[36] = test system: Acinetobacter; assay: Antibacterial activity against imipenem-susceptible Acinetobacter assessed as susceptible isolates by CLSI M7-A7 broth microdilution method
[37] = test system: Haemophilus influenzae; assay: Antibacterial activity against beta lactamase-negative Haemophilus influenzae by CLSI M7-A7 broth microdilution method
[38] = test system: Haemophilus influenzae; assay: Antibacterial activity against beta lactamase-negative Haemophilus influenzae assessed as susceptible isolates by CLSI M7-A7 broth microdilution method
[39] = test system: Haemophilus influenzae; assay: Antibacterial activity against beta lactamase-positive Haemophilus influenzae by CLSI M7-A7 broth microdilution method
[40] = test system: Haemophilus influenzae; assay: Antibacterial activity against beta lactamase-positive Haemophilus influenzae assessed as susceptible isolates by CLSI M7-A7 broth microdilution method
[41] = test system: Moraxella catarrhalis; assay: Antibacterial activity against beta lactamase-positive Moraxella catarrhalis by CLSI M7-A7 broth microdilution method
[42] = test system: Providencia sp.; assay: Antibacterial activity against ceftazidime-susceptible Providencia sp. assessed as susceptible isolates by CLSI M7-A7 broth microdilution method
[43] = test system: Providencia sp.; assay: Antibacterial activity against ceftazidime-susceptible Providencia sp. assessed as resistant isolates by CLSI M7-A7 broth microdilution method

CC(C)(O/N=C(\C(=O)N[C@@H]1C(=O)N2C(C(=O)[O-])=C(C[n+]3ccccc3)CS[C@H]12)c1csc(N)n1)C(=O)O [CEFTAZIDIME]
≤ 1 mg/L: MIC [8] | MIC50 [8] | MIC90 [8] | MIC [9] | MIC50 [9] | MIC90 [9] | MIC [10] | MIC50 [10] | MIC90 [10] | MIC [11] | MIC50 [11] | MIC [41] | MIC50 [41] | MIC90 [41]
32 mg/L: MIC50 [5] | MIC90 [7]
0.06 mg/L: MIC50 [30] | MIC50 [37] | MIC50 [39]
98.5%: Activity [38]
0.5 mg/L: MIC90 [13]
91.4%: Activity [22]
16 mg/L: MIC50 [7]
63.8%: Activity [36]
10%: Activity [6]
0.12 mg/L: MIC50 [13] | MIC90 [30] | MIC90 [37] | MIC90 [39]
> 32 mg/L: MIC90 [5] | MIC90 [12] | MIC50 [18] | MIC90 [18] | MIC50 [25] | MIC90 [25] | MIC50 [29] | MIC90 [29] | MIC50 [32] | MIC90 [32] | MIC90 [35]
98%: Activity [40]
100%: Activity [14] | Activity [20] | Activity [23] | Activity [27] | Activity [42]
1.7%: Activity [2]
93.8%: Activity [34]
0%: Activity [15] | Activity [16] | Activity [19] | Activity [21] | Activity [24] | Activity [28] | Activity [31] | Activity [33] | Activity [43]
0.5%: Activity [4]
87.3%: Activity [26]
4 mg/L: MIC90 [11] | MIC50 [35]
54%: Activity [3]
8 mg/L: MIC50 [1] | MIC90 [1] | MIC50 [12]
90%: Activity [17]
